29 compounds from ChEMBL document CHEMBL3396965, “Peptide inhibitors of the Escherichia coli DsbA oxidative machinery essential for bacterial virulence” (J Med Chem, 2015) can be followed below.

The target of test [1] is T1, Thioredoxin reductase 1, cytoplasmic (Homo sapiens) (UniProt Q16881).
T1 sequence (whole entry): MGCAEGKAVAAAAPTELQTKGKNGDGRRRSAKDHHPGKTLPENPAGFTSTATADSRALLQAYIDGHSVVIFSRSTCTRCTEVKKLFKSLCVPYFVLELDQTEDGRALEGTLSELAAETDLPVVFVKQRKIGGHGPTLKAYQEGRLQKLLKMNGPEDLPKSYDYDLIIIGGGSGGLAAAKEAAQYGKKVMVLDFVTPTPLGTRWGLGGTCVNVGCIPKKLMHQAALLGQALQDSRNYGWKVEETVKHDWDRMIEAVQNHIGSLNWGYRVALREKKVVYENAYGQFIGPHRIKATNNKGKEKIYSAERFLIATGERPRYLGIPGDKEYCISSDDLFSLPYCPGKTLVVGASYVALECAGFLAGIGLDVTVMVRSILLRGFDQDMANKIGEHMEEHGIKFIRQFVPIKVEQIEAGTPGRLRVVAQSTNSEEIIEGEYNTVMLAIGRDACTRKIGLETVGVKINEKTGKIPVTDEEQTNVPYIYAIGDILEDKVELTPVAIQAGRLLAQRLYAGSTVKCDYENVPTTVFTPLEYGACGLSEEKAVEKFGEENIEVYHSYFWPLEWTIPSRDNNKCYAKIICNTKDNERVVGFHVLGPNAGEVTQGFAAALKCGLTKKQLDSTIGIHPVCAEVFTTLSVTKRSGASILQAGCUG
Put plainly: Inhibition of oxidized human TXR1 reductase activity by insulin reduction assay.

The target of test [2] is T2, Thiol:disulfide interchange protein DsbA (Escherichia coli (strain K12), UniProt P0AEG4).
T2 sequence (P0AEG4 whole entry): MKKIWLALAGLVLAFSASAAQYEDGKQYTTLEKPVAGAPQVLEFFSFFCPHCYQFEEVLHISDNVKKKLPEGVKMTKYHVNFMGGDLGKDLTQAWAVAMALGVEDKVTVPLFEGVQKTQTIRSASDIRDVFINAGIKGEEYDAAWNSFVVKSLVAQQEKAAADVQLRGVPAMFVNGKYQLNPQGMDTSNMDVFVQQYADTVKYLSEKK
Put plainly: Binding affinity to oxidized Escherichia coli DsbA by isothermal titration calorimetry assay. (In general: ITC needs no label: the signal is the heat of the interaction.)

The target in test [3] is T3, Thiol:disulfide interchange protein DsbA (Escherichia coli (strain K12)) (UniProt P0AEG4).
T3 sequence (whole entry): T2 sequence (P0AEG4 whole entry)
Put plainly: Binding affinity to Escherichia coli DsbA assessed as change in melting temperature at 250 uM by Thermal shift assay.

For test [4], the target named is T3, Thiol:disulfide interchange protein DsbA (Escherichia coli (strain K12)). Put plainly: Binding affinity to Escherichia coli DsbA assessed as change in melting temperature at 2 mM by Thermal shift assay.
Test [5] shares this target. Put plainly: Binding affinity to Escherichia coli DsbA assessed as change in melting temperature at 4 mM by Thermal shift assay.
The target is the same in test [6]. Put plainly: Binding affinity to Escherichia coli DsbA assessed as change in melting temperature at 500 uM by Thermal shift assay.
The target is the same in test [7]. Put plainly: Binding affinity to Escherichia coli DsbA assessed as change in melting temperature at 125 uM by Thermal shift assay.
Test [8] has the same target. Put plainly: Binding affinity to Escherichia coli DsbA assessed as change in melting temperature at 1 mM by Thermal shift assay.

A word on the Kd: it is the concentration at which binding is half-saturated. As usually defined, the ΔTm is the shift of the melting midpoint relative to a reference.

Calls of active or inactive are those of the source. The calls are words filed in the database; no cut-off is given here. Square brackets hold non-standard residues; d marks the D form. Peptide text beside a SMILES is read from it. Dip = N[C@H](C(=O)O)C(c1ccccc1)c1ccccc1; hPhe = N[C@@H](CCc1ccccc1)C(=O)O; Tic = O=C(O)[C@@H]1Cc2ccccc2CN1; Pip = O=C(O)[C@@H]1CCCCN1; hSer = N[C@@H](CCO)C(=O)O; Nva = CCC[C@H](N)C(=O)O

Consider `CC(=O)N1CCC[C@H]1C(=O)N[C@@H](Cc1c[nH]c2ccccc12)C(=O)N[C@@H](C)C(=O)N[C@H](C(=O)N[C@@H](CS)C(=O)N[C@@H](CC(=O)O)C(=O)N[C@@H](CO)C(N)=O)[C@@H](C)O`, for which the inhibition result in test [1] was “inactive”. In the case of `CCC[C@H](NC(=O)[C@@H](NC(=O)[C@H](C)NC(=O)[C@H](Cc1c[nH]c2ccccc12)NC(=O)[C@@H]1CCCN1C(=O)[C@H](CO)NC(=O)[C@@H]1CCCN1C(C)=O)[C@@H](C)O)C(N)=O` (Ac-PSPWAT[Nva]-NH2), in test [2], the dissociation constant (Kd) result is “Not Active”. Still for that read-out and setting: in the case of `CC(=O)N1CCC[C@H]1C(=O)N[C@@H](CO)C(=O)N1CCC[C@H]1C(=O)N[C@@H](Cc1c[nH]c2ccccc12)C(=O)N[C@@H](C)C(=O)N[C@H](C(=O)N[C@@H](CCO)C(N)=O)[C@@H](C)O` (Ac-PSPWAT[hSer]-NH2) it was “Not Active”. On to `CC(=O)N1CCC[C@H]1C(=O)N[C@@H](CO)C(=O)N1CCC[C@H]1C(=O)N[C@H](C(=O)N[C@@H](C)C(=O)N[C@H](C(=O)N[C@@H](CS)C(N)=O)[C@@H](C)O)C(c1ccccc1)c1ccccc1` (Ac-PSP[Dip]ATC-NH2), for which the Kd in test [2] (read-out: Kd) is 9.7 µM. Still for that read-out and setting: in the case of `CC(=O)N1CCC[C@H]1C(=O)N[C@@H](CO)C(=O)N1CCC[C@H]1C(=O)N[C@@H](CCc1ccccc1)C(=O)N[C@@H](C)C(=O)N[C@H](C(=O)N[C@@H](CS)C(N)=O)[C@@H](C)O` (Ac-PSP[hPhe]ATC-NH2) it was 14.9 µM; in that of `CC(=O)N1CCC[C@H]1C(=O)N[C@@H](CO)C(=O)N1CCCC[C@H]1C(=O)N[C@@H](Cc1c[nH]c2ccccc12)C(=O)N[C@@H](C)C(=O)N[C@H](C(=O)N[C@@H](CS)C(N)=O)[C@@H](C)O` (Ac-PS[Pip]WATC-NH2), 12 µM. Same read-out and setting: the value for `CC(=O)N1CCC[C@H]1C(=O)N[C@@H](CO)C(=O)N1Cc2ccccc2C[C@H]1C(=O)N[C@@H](Cc1c[nH]c2ccccc12)C(=O)N[C@@H](C)C(=O)N[C@H](C(=O)N[C@@H](CS)C(N)=O)[C@@H](C)O` (Ac-PS[Tic]WATC-NH2) was 13.1 µM; that for `CC(=O)N1CCC[C@H]1C(=O)N[C@@H](CCc1ccccc1)C(=O)N[C@@H](C)C(=O)N[C@H](C(=O)N[C@@H](CS)C(=O)N[C@@H](CC(=O)O)C(=O)N[C@@H](CO)C(N)=O)[C@@H](C)O` (Ac-P[hPhe]ATCDS-NH2) was 8.3 µM; that for Ac-ASPWATCDF-NH2 was 2.7 µM. Same read-out and setting: the value for Ac-PAPWATCDF-NH2 was 2.8 µM; that for Ac-PFATCDF-NH2 was 5.9 µM. Turning to Ac-PFATCDS-NH2, the ΔTm was determined as 1.7 °C in test [3]; 7.2 °C in test [4]; 9 °C in test [5]; 3.3 °C in test [6]; 0.6 °C in test [7]; 5.3 °C in test [8]. In addition, in test [2] (read-out: Kd), the Kd turned out to be 13.1 µM.

In the case of Ac-PSAWATCDF-NH2, in test [2] (read-out: Kd), the Kd came out at 5.5 µM. Ac-PSPAATCDF-NH2: the dissociation constant (Kd) in test [2] (read-out: Kd) is 5.8 µM. Ac-PSPWAACDF-NH2: the Kd in test [2] (read-out: Kd) amounted to 11.3 µM.

As for Ac-PSPWATADF-NH2, the Kd entry in test [2] is on record as “Not Active”. Take Ac-PSPWATC-NH2: the Kd in test [2] (read-out: Kd) was determined as 18 µM.

As for Ac-PSPWATCAF-NH2, in test [2] (read-out: Kd), the dissociation constant Kd amounted to 3.1 µM.

On to Ac-PSPWATCD-NH2, for which the Kd in test [2] (read-out: Kd) came to 10.7 µM. On the same count and under the same terms, in the case of Ac-PSPWATCDA-NH2 it was 4.4 µM; in that of Ac-PSPWATCDF-NH2, 2.9 µM. With Ac-PSPWATIDF-NH2, the Kd entry in test [2] is “Not Active”. Take Ac-PSPWATM-NH2: the Kd entry in test [2] is “Not Active”. On the same count and under the same terms, the value for Ac-PSPWATN-NH2 was “Not Active”.

As to Ac-PSPWATSDF-NH2, in test [2], the Kd entry is on record as “Not Active”.

With Ac-PSPWATVDF-NH2, the Kd entry in test [2] was “Not Active”.

For the compound Ac-PWATCDF-NH2, the dissociation constant (Kd) in test [2] (read-out: Kd) worked out at 3 µM. Consider Ac-PWATSDS-NH2, for which the thermal shift (ΔTm) in test [3] was found to be 0.2 °C; in test [4] it was 1.5 °C; in test [5], 2.9 °C; in test [6], 0.2 °C; in test [7], 0.1 °C; in test [8], 0.6 °C. Moreover, the Kd result in test [2] is reported as “Not Active”. For Ac-SPWATCDF-NH2, the equilibrium dissociation constant (Kd) in test [2] (read-out: Kd) was 2.2 µM.
